Measured values published in patent US6319952A, “Compositions and methods for reversibly increasing permeability of biomembranes” (D-Pharm Ltd., priority 1997, dated 2001).

Experiments:
[1] = tested on: blood brain barrier; settings: Sztriha and Betz; cited from earlier work
[2] = tested on: blood-brain barrier (BBB); experiment: Effect of branched chain fatty acids on BBB permeability by qualitative Evan's Blue (EB) evaluation in rats; assay type: in vivo, rat (male Sprague-Dawley); settings: intracarotid infusion
Method: Evaluation of Effect of Branched Fatty Acids on Blood-brain Barrier Permeability
The experiments were carried out on male Sprague-Dawley rats weighing 250-320 gr. They were anesthetized with Rampun-Imalgen. The right common carotid artery was exposed.
The test compounds were dissolved in 0.1M phosphate buffered physiological saline (pH=7.4) at the following test concentrations: 1.6; 8; 20; 40; 200 and 1000 μg/ml.
The test compound was infused into the right common carotid artery at a rate of 6 ml/min. for 30 s. The control rats were infused with buffer. Evan's Blue (EB) solution at a concentration of […] (2 g Evan's Blue, 0.9 g NaCl in 100 ml water) was injected intravenously 50 minutes prior to the termination of the experiment.
In the case of 45 min experiment, five minutes prior to the infusion of the tested material, 4 ml/kg body wt dose of Evans Blue solution was injected intravenously.
At the end of the experimental time period the animals were perfused with 100 ml of saline solution through the heart and decapitated. The degree of BBB opening, in terms of extravasation of Evan's Blue albumin, was graded on the basis of visual assessment of the degree of staining of the brain ato the method of Rapoport et al. (Rapoport et al., 1980, Amer. J. Physiol. 258, 421-431), and the results are presented in Tables 1 and 2.
The results presented are qualitative with four degrees of Evan's Blue extravasation according to Rapoport et al. Minus signs represents no staining and three plus signs represent maximal staining.

[3] = tested on: blood brain barrier; settings: cited from earlier work
[4] = tested on: mice; experiment: Acute intravenous toxicity test in mice; assay type: in vivo; settings: i.v.; for dose causing mortality: mice, three days
Method: An acute intravenous toxicity test was performed to study the toxicity of the branched fatty acids in mice. The study included mortality and behavioral observations during three days. The rate of mortality is represented in the Table 5. M 3/14 caused mortality at a dose of 175 mg/kg; M3/12 at a dose of 75 mg/kg and M 3/10 at a dose of 100 mg/kg. Death was observed ten minutes after i.v. injection. In sub-lethal doses no significant behavior changes were observed.

[5] = tested on: membrane; settings: Perlman and Goldstein; cited from earlier work

## CCCCCCCC/C=C\CCCCCCCC(=O)O [oleic acid, reference compound]
[1]
  opening of the BBB: reversibly open the BBB
[2]; 125 μM, 180 min
  Visual EB: -

## OC[C@@H](O)[C@@H](O)[C@H](O)[C@H](O)CO [Mannitol]
[3]; osmotic modification, chemotherapy after barrier opening
  drug entry after barrier opening: enhanced drug entry to both brain-tumor and brain
[3]; osmotic modification
  complications of osmotic BBB modification: clinical manifestation of stroke, seizures, immunological reaction and ocular toxicity
[3]; osmotic treatment, Greig
  duration of BBB opening: very short period

## CCCCCCCCCCCCC(CCC)C(=O)O (stereo not drawn) [M 3/12, 2-propyltetradecanoic acid]
[4]; 50 mg/kg, 2.5 mg/ml
  Mortality: 0/3
[4]; 75 mg/kg, 2.5 mg/ml
  Mortality: 3/3
[4]
  dose causing mortality: 75 mg/kg
[2]; 125 μM, 180 min
  Visual EB: ++

## CCCCCCCCCCC(CCC)C(=O)O (stereo not drawn) [M 3/10, 2-propyldodecanoic acid]
[4]; 50 mg/kg, 10 mg/ml
  Mortality: 0/3
[4]; 100 mg/kg, 10 mg/ml
  Mortality: 3/3
[4]
  dose causing mortality: 100 mg/kg
[2]; 625 μM, 45 min
  Visual EB: ++

## CCCCCCCCCCC(CCCCCCCCCC)C(=O)O [M 10/10, 2-decanyldodecanoic acid]
[2]; 625 μM, 45 min
  Visual EB: ++

## CCCC(CCC)C(=O)O [valproic acid]
[5]
  membrane disordering: membrane disordering potency
